The values that follow come from paper PMC11495047 (Journal of Virology, 2024).

SMILES strings stand for the structures. Read-outs that look alike come from different tables or passages of the source.

One series deals with rCedV. Briefly: microbe, parasite or virus in culture. It is filed as cell-based.
Series [1] concerns the target CedV vRdRp (rCedV TC-tr minigenome) (Cedar virus, UniProt J7GXK9). In kind it is cell-based.
A further series relates to rNiV. Briefly: microbe, parasite or virus in culture. In kind it is cell-based.
Series [2] has as its target GhV vRdRp (rGhV TC-tr minigenome) (Ghana virus, UniProt H9M6P4). In kind it is cell-based.
Series [3] has as its target NiV vRdRp (rNiV TC-tr minigenome) (Nipah virus, UniProt Q997F0).
For series [4] the following is noted: in vivo; cited from earlier work.

`O=c1ccn([C@@H]2O[C@](F)(CO)[C@@H](O)[C@H]2O)c(=O)[nH]1` [EIDD-2749, 4′-Fluorouridine]: the IC50 – broadly, the point on the concentration scale where inhibition reaches its midpoint – stood at 0.7 µM in the series on rCedV (Cedar virus, BSR-T7/5, 24 h); 2.1 µM in series [1]; 2.9 µM in the series on rNiV; 2.6 µM with rNiV (Henipavirus nipahense, BHK).

On to `NC(=O)c1c(F)cccc1-c1cccc2cnccc12` [GHP-88309], for which the values for the IC50 (in series [2]; with rCedV (read-out: IC50); in series [1] (read-out: IC50)) were 1.7 µM, 1.6 µM and 5.7 µM, respectively. Further, the “susceptibility of rNiV TC-tr minigenome” value in series [3] is “no susceptibility”. Also, the oral bioavailability entry in series [4] was “high oral bioavailability”.
